Common to all, as to format: biochemical
The target of one assay is T1, HDAC6 enzyme (Homo sapiens, UniProt Q9UBN7).
T1 construct: transducing full length HDAC1 and HDAC6 genes into Sf-9 insect cells; GST; purchased SignalChem; host or cells: Sf-9 insect cells
T1 sequence (Q9UBN7 1-1215): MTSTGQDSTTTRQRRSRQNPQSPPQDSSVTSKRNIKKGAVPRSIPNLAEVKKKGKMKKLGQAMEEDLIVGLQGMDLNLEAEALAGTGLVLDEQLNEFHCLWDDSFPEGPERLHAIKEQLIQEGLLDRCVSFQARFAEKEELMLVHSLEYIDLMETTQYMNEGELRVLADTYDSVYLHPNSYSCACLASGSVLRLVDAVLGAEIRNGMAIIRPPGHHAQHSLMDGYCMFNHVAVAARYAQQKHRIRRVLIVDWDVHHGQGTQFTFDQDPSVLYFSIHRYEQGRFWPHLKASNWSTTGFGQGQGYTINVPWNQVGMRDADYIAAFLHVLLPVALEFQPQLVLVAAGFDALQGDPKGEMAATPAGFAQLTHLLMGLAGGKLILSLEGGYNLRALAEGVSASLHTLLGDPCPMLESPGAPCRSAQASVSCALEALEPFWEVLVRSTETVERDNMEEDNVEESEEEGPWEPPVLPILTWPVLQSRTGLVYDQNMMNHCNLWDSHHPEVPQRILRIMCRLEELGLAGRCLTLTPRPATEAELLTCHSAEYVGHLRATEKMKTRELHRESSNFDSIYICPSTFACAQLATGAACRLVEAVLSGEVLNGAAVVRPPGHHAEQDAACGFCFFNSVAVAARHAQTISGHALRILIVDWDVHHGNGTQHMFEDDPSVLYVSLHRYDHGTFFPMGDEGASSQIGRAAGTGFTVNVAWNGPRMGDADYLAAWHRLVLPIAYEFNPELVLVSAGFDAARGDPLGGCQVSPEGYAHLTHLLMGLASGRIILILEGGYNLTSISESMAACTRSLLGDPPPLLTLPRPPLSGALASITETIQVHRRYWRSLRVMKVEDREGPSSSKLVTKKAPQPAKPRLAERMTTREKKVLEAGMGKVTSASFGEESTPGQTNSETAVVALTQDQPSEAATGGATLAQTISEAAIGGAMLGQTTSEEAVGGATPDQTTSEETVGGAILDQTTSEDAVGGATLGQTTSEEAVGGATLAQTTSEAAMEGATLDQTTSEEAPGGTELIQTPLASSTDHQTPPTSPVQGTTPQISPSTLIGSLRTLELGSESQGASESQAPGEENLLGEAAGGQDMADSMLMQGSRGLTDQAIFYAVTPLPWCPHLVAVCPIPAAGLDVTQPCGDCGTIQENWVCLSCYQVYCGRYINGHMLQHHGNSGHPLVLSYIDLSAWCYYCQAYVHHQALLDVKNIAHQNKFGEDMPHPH
The experiment in a line: HDAC1/6 Enzyme Inhibitory Assay (HDAC-Glo I/II Assay kit), HDAC6. Conditions: 1 μM test compound, wells without enzyme = 100% inhibition; for inhibition at 1 µM: read-out: HDAC6 inhibitory rate (%) (1 μM). The procedure:
(§1) HDAC1/6 Enzyme Inhibitory Assay
(§2) HDAC1 enzyme and HDAC6 enzyme each prepared by transducing full length HDAC1 and HDAC6 genes into Sf-9 insect cells and purifying by GST affinity column were purchased from SignalChem. Using these enzymes, HDAC1 and/or HDAC6 enzyme inhibitory activities of the compound of the present invention were evaluated. Enzymes were used after preserved at −70° C. HDAC1 or HDAC6 enzyme inhibitory activity of the compound of the present invention was measured using HDAC-Glo™ I/II Assay kit (Promega) according to the following experimental method. The test compound diluted with assay buffer (24 mM Tris-HCl (pH 7.5), 1 mM MgCl2, 0.35 mM KCl, 135 mM NaCl, 0.6 mM Glutathione, 0.01% Tween-20) was added to a 384-well plate by each 2 μL. Then, HDAC1 or HDAC6 enzyme solution diluted with assay buffer was added thereto by each 4 μL, and the plate was incubated at room temperature for 60 min. After incubated, HDAC substrate-Developer solution prepared according to Promega protocol attached to the assay kit was added to the 384-well plate by each 2 μL, and the enzyme reaction was started. After reacting at room temperature for 20 min, luminescence level was measured using plate reader Envision (PerkinElmer). The inhibitory activity of each compound was calculated as a relative activity value when luminescence level in wells without enzyme is considered as 100% inhibition.

A further assay has as its target T2, HDAC1 enzyme (Homo sapiens, UniProt Q13547).
T2 construct: transducing full length HDAC1 and HDAC6 genes into Sf-9 insect cells; GST; purchased SignalChem; host or cells: Sf-9 insect cells
The experiment in a line: HDAC1/6 Enzyme Inhibitory Assay (HDAC-Glo I/II Assay kit), HDAC1. The conditions noted are these: 1 μM test compound, wells without enzyme = 100% inhibition; for inhibition at 1 µM: read-out: HDAC1 inhibitory rate (%) (1 μM). The procedure: as §1, §2

The target of a further assay is T3, HDAC9 enzyme (Homo sapiens, UniProt Q9UKV0).
T3 construct: transducing full length HDAC9 gene into Sf-9 insect cells; made in house; host or cells: Sf-9 insect cells
T3 sequence (Q9UKV0 whole entry, species assumed): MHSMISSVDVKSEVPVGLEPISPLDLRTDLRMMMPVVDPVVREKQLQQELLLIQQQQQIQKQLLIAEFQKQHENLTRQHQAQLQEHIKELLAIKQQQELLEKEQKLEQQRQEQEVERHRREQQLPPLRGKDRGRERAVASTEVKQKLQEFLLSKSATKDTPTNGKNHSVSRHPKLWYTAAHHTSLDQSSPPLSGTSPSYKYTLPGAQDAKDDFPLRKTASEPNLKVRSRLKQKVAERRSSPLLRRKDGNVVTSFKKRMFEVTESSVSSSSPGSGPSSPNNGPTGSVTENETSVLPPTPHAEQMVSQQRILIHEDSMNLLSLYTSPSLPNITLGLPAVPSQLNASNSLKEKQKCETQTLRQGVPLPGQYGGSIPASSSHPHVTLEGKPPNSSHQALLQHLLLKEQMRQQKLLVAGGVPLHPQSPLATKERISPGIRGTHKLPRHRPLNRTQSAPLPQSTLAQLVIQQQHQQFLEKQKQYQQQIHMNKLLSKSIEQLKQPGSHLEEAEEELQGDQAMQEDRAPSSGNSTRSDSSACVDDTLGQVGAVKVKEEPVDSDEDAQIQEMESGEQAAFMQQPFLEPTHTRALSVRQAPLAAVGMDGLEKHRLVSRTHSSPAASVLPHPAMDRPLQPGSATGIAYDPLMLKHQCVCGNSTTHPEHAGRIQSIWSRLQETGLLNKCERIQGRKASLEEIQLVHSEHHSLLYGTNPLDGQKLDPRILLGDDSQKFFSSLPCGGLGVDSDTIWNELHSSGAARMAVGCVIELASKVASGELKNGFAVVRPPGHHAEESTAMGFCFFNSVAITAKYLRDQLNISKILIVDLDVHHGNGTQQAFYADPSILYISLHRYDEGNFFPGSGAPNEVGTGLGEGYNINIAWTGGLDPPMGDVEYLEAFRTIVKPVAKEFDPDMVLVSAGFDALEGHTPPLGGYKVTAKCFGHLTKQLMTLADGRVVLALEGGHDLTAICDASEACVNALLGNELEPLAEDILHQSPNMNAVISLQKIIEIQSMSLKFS
Briefly: HDAC9 Enzyme Inhibitory Assay (HDAC-Glo class IIa). Conditions: 1 μM test compound, wells without enzyme = 100% inhibition; for inhibition at 1 µM: read-out: HDAC9 inhibitory rate (%) (1 μM). The procedure:
HDAC9 Enzyme Inhibitory Assay
Enzyme was prepared by transducing full length HDAC9 gene into Sf-9 insect cells and purifying by Ni-NTA affinity column, and HDAC9 enzyme inhibitory activity was evaluated. Enzymes were used after preserved at −70° C. HDAC9 enzyme inhibitory activity of the test compound was measured using HDAC-Glo class IIa (Promega) according to the following experimental method. The test compound diluted with assay buffer (24 mM Tris-HCl (pH 7.5), 1 mM MgCl2, 0.35 mM KCl, 135 mM NaCl, 0.6 mM Glutathione, 0.01% Tween-20) was added to a 384-well plate by each 2 μL. Then, HDAC9 enzyme solution diluted with assay buffer was added thereto by each 2 μL, and the plate was incubated at room temperature for 60 min. After incubated, HDAC substrate-Developer solution prepared according to Promega protocol was added to the 384-well plate by each 4 μL, and the enzyme reaction was started. After reacting at room temperature for 20 min, luminescence level was measured using plate reader Envision (PerkinElmer). The inhibitory activity of each compound was calculated as a relative activity value when luminescence level in wells without enzyme is considered as 100% inhibition.

T2 sequence (Q13547 whole entry): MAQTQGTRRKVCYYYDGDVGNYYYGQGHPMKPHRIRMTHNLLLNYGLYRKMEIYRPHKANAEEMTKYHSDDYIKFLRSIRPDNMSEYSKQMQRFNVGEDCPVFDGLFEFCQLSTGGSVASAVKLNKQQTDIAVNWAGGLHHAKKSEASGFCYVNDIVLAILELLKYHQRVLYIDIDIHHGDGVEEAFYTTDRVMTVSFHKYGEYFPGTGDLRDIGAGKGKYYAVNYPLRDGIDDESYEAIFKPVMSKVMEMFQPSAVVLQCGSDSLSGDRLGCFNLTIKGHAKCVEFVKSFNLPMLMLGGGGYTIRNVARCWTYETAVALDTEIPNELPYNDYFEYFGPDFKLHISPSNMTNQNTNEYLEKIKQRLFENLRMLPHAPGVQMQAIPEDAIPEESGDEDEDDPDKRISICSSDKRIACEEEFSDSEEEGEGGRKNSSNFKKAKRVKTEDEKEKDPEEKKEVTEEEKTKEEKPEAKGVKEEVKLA

Consider `Cc1ccc([C@@H]2CNCC[C@H]2N2Cc3ccc(-c4noc(C(F)(F)F)n4)cc3C2=O)cc1` (relative stereo) [Example 47, 2-(trans-3-(4-methylphenyl)piperidin-4-yl)-6-(5-(trifluoromethyl)-1,2,4-oxadiazol-3-yl)isoindolin-1-one], for which the inhibition at 1 µM on HDAC6 enzyme amounted to 95%; at HDAC1 enzyme, 90%; on HDAC9 enzyme it was 99%.

With `O=C1c2ccc(-c3noc(C(F)(F)F)n3)cc2CN1[C@@H]1CNCC[C@H]1c1ccccc1` (relative stereo) [Example 72, trans-2-(4-phenylpiperidin-3-yl)-5-(5-(trifluoromethyl)-1,2,4-oxadiazol-3-yl)isoindolin-1-one], the inhibition at 1 µM on HDAC6 enzyme worked out at 90%; at HDAC1 enzyme it was 32%; on HDAC9 enzyme, 80%.

Regarding `O=C(N[C@H]1CCOC[C@@H]1N1Cc2ccc(-c3noc(C(F)(F)F)n3)cc2C1=O)[C@@H]1CC1(F)F` [Example 201, (1S)-2,2-difluoro-N-((3R,4S)-3-(1-oxo-6-(5-(trifluoromethyl)-1,2,4-oxadiazol-3-yl)-1,3-dihydro-2H-isoindol-2-yl)tetrahydro-2H-pyran-4-yl)cyclopropanecarboxamide], the inhibition at 1 µM was determined as 98% on HDAC6 enzyme, 16% at HDAC1 enzyme and 86% on HDAC9 enzyme.

On to `O=C(N[C@H]1CCCC[C@@H]1N1Cc2ccc(-c3noc(C(F)(F)F)n3)cc2C1=O)C1CC1` [Example 33, N-((1S,2S)-2-(1-oxo-6-(5-(trifluoromethyl)-1,2,4-oxadiazol-3-y)-1,3-dihydro-2H-isoindol-2-yl)cyclohexyl)cyclopropanecarboxamide], for which the inhibition at 1 µM on HDAC6 enzyme was found to be 83%; at HDAC1 enzyme it was 7%; at HDAC9 enzyme it was 46%.

Regarding `O=C(N[C@H]1CCOC[C@H]1N1Cc2ccc(-c3noc(C(F)(F)F)n3)cc2C1=O)C1CC1(F)F` (single isomer, unassigned) [Example 214, (1R) or (1S)-2,2-difluoro-N-((3S,4S)-3-(1-oxo-6-(5-(trifluoromethyl)-1,2,4-oxadiazol-3-yl)-1,3-dihydro-2H-isoindol-2-yl)tetrahydro-2H-pyran-4-yl)cyclopropanecarboxamide], the “HDAC6 inhibitory rate (%) (1 μM)” value at HDAC6 enzyme (1 µM) was determined as 98%. Also, the “HDAC1 inhibitory rate (%) (1 μM)” value on HDAC1 enzyme (1 µM) is recorded as 68%. For the same compound, the “HDAC9 inhibitory rate (%) (1 μM)” value on HDAC9 enzyme (1 µM) came to 97%.

On to `O=C(Cc1cc(=O)[nH][nH]1)N[C@@H]1CCCC[C@H]1N1Cc2ccc(-c3noc(C(F)(F)F)n3)cc2C1=O` [Example 117, 2-(5-oxo-2,5-dihydro-1H-pyrazol-3-yl)-N-((1R,2R)-2-(1-oxo-6-(5-(trifluoromethyl)-1,2,4-oxadiazol-3-yl)-1,3-dihydro-2H-isoindol-2-yl)cyclohexyl)acetamide], for which the figures for the inhibition at 1 µM at HDAC6 enzyme, at HDAC1 enzyme and on HDAC9 enzyme were 97%, 4% and 27%, respectively.

On to `CC(C)(C)OC(=O)N1CC[C@@H](N2Cc3ccc(-c4noc(C(F)(F)F)n4)cc3C2=O)[C@H](c2ccccc2)C1` [Example 13, tert-butyl (3R,4R)-4-(1-oxo-6-(5-(trifluoromethyl)-1,2,4-oxadiazol-3-yl)-1,3-dihydro-2H-isoindol-2-yl)-3-phenylpiperidine-1-carboxylate], for which the inhibition at 1 µM was found to be 101% on HDAC6 enzyme, 53% on HDAC1 enzyme and 84% at HDAC9 enzyme.

On to `O=C1c2cc(-c3noc(C(F)(F)F)n3)ccc2CN1[C@@H]1COCC[C@H]1O` [Example 179, 1,5-anhydro-2,4-dideoxy-2-(1-oxo-6-(5-(trifluoromethyl)-1,2,4-oxadiazol-3-yl)-1,3-dihydro-2H-isoindol-2-yl)-D-threo-pentitol], for which the inhibition at 1 µM on HDAC6 enzyme is 90%; at HDAC1 enzyme, 11%; at HDAC9 enzyme, 84%.

As for `Cc1ccc([C@@H]2CNCC[C@H]2N2Cc3ccc(-c4noc(C(F)(F)F)n4)cc3C2=O)cc1Cl` (relative stereo) [Example 56, 2-(trans-3-(3-chloro-4-methylphenyl)piperidin-4-yl)-6-(5-(trifluoromethyl)-1,2,4-oxadiazol-3-yl)isoindolin-1-one], the figures for the inhibition at 1 µM on HDAC6 enzyme, on HDAC1 enzyme and on HDAC9 enzyme were 97%, 93% and 99%, respectively.

Regarding `O=C(N[C@H]1CCCC[C@@H]1N1Cc2ccc(-c3noc(C(F)(F)F)n3)cc2C1=O)[C@@H]1CCCO1` [Example 217, (2S)-N-((1S,2S)-2-(1-oxo-6-(5-(trifluoromethyl)-1,2,4-oxadiazol-3-yl)-1,3-dihydro-2H-isoindol-2-yl)cyclohexyl)tetrahydrofuran-2-carboxamide], the inhibition at 1 µM on HDAC6 enzyme is 82%; at HDAC1 enzyme, 21%; at HDAC9 enzyme, 53%.

In the case of `O=C1CCCN1[C@H]1COCC[C@@H]1N1Cc2ccc(-c3noc(C(F)(F)F)n3)cc2C1=O` [Example 181, 2-((3R,4S)-3-(2-oxopyrrolidin-1-yl)tetrahydro-2H-pyran-4-yl)-6-(5-(trifluoromethyl)-1,2,4-oxadiazol-3-yl)isoindolin-1-one], the inhibition at 1 µM on HDAC6 enzyme came to 74%; on HDAC1 enzyme it was 2%; on HDAC9 enzyme, 41%.

Take `O=C1c2ccc(-c3noc(C(F)(F)F)n3)cc2CN1c1ccccc1` [Example 1, 2-phenyl-5-(5-(trifluoromethyl)-1,2,4-oxadiazol-3-yl)isoindolin-1-one]: the figures for the inhibition at 1 µM at HDAC6 enzyme and on HDAC9 enzyme were 8% and 55%, respectively.

As for `O=C1CCCN1[C@@H]1CCCC[C@H]1N1Cc2ccc(-c3noc(C(F)(F)F)n3)cc2C1=O` [Example 191, 2-((1R,2R)-2-(2-oxopyrrolidin-1-yl)cyclohexyl)-6-(5-(trifluoromethyl)-1,2,4-oxadiazol-3-yl)isoindolin-1-one], the inhibition at 1 µM at HDAC6 enzyme is 99%; on HDAC9 enzyme it was 66%.

Take `O=C1CCCN1[C@@H]1CCCC[C@H]1N1Cc2ccc(-c3noc(C(F)(F)F)n3)cc2C1=O` (relative stereo) [Example 18, trans-2-(2-(2-oxopyrrolidin-1-yl)cyclohexyl)-6-(5-(trifluoromethyl)-1,2,4-oxadiazol-3-yl)isoindolin-1-one]: the results for the inhibition at 1 µM on HDAC6 enzyme and on HDAC9 enzyme were 99% and 47%, respectively.
